Measurements as given in PubChem BioAssay (NCI).
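Results reflect a 48-hour exposure of cells in 96-well plates to compound at five concentrations. TGI: concentration producing complete growth inhibition.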

Legend:
Assay in all cases: NCI tumour cell line growth inhibition, 48 h
NCI-H522 lung = tested on: NCI-H522 lung
HT29 colon = tested on: HT29 colon
SW-620 colon = tested on: SW-620 colon
SK-OV-3 ovarian = tested on: SK-OV-3 ovarian
HCT-15 colon = tested on: HCT-15 colon
MDA-MB-435 = tested on: MDA-MB-435
SF-295 CNS = tested on: SF-295 CNS
OVCAR-4 ovarian = tested on: OVCAR-4 ovarian
K-562 leukemia = tested on: K-562 leukemia
SN12C renal = tested on: SN12C renal
786-0 renal = tested on: 786-0 renal
DU-145 prostate = tested on: DU-145 prostate
SNB-19 CNS = tested on: SNB-19 CNS
KM12 colon = tested on: KM12 colon
M14 melanoma = tested on: M14 melanoma
NCI/ADR-RES ovarian = tested on: NCI/ADR-RES ovarian
A549 NSCLC = tested on: A549 NSCLC
NCI-H23 lung = tested on: NCI-H23 lung
MOLT-4 leukemia = tested on: MOLT-4 leukemia
HS 578T breast = tested on: HS 578T breast
EKVX NSCLC = tested on: EKVX NSCLC
IGROV1 ovarian = tested on: IGROV1 ovarian
RXF 393 renal = tested on: RXF 393 renal
A498 renal = tested on: A498 renal
SNB-75 CNS = tested on: SNB-75 CNS
MCF7 breast = tested on: MCF7 breast
SK-MEL-2 melanoma = tested on: SK-MEL-2 melanoma
SK-MEL-5 melanoma = tested on: SK-MEL-5 melanoma
OVCAR-8 ovarian = tested on: OVCAR-8 ovarian
SK-MEL-28 melanoma = tested on: SK-MEL-28 melanoma
UACC-62 melanoma = tested on: UACC-62 melanoma
LOX IMVI melanoma = tested on: LOX IMVI melanoma
HCT-116 colon = tested on: HCT-116 colon
MDA-N = tested on: MDA-N
SF-539 CNS = tested on: SF-539 CNS
HL-60(TB) leukemia = tested on: HL-60(TB) leukemia
PC-3 prostate = tested on: PC-3 prostate
RPMI-8226 leukemia = tested on: RPMI-8226 leukemia
OVCAR-3 ovarian = tested on: OVCAR-3 ovarian
CAKI-1 renal = tested on: CAKI-1 renal
MALME-3M melanoma = tested on: MALME-3M melanoma
ACHN renal = tested on: ACHN renal
MDA-MB-231 breast = tested on: MDA-MB-231 breast
TK-10 renal = tested on: TK-10 renal
BT-549 breast = tested on: BT-549 breast
HOP-92 NSCLC = tested on: HOP-92 NSCLC
NCI-H460 lung = tested on: NCI-H460 lung
OVCAR-5 ovarian = tested on: OVCAR-5 ovarian
T-47D breast = tested on: T-47D breast
HOP-62 NSCLC = tested on: HOP-62 NSCLC
HCC-2998 colon = tested on: HCC-2998 colon
CCRF-CEM leukemia = tested on: CCRF-CEM leukemia
UACC-257 melanoma = tested on: UACC-257 melanoma
UO-31 renal = tested on: UO-31 renal
SF-268 CNS = tested on: SF-268 CNS
U251 CNS = tested on: U251 CNS
COLO 205 colon = tested on: COLO 205 colon
NCI-H226 lung = tested on: NCI-H226 lung

Measured: TGI

O=C(O)/C(=C/c1ccccc1)c1ccccc1
not listed: COLO 205 colon | NCI-H226 lung
> 100 µM: all other assays above

O=C1C(Cl)=C(Cl)C(Cl)(Cl)C(Cl)C1(Cl)Cl (stereo not given)
75.9 µM: T-47D breast
47.4 µM: OVCAR-3 ovarian | NCI-H460 lung
54.7 µM: SW-620 colon
82.7 µM: CCRF-CEM leukemia
59.2 µM: MDA-MB-435
59.8 µM: HOP-92 NSCLC
58.6 µM: SNB-75 CNS
61 µM: SNB-19 CNS
58.4 µM: HL-60(TB) leukemia
58 µM: OVCAR-5 ovarian
98.8 µM: HCT-15 colon
34.9 µM: HCC-2998 colon
32.9 µM: UACC-62 melanoma
77.1 µM: PC-3 prostate
64 µM: NCI/ADR-RES ovarian
62.1 µM: SK-MEL-28 melanoma
> 100 µM: K-562 leukemia | 786-0 renal | DU-145 prostate | OVCAR-8 ovarian | ACHN renal
76.2 µM: HOP-62 NSCLC
32.7 µM: UO-31 renal
32.8 µM: SF-539 CNS
51.3 µM: A549 NSCLC | SF-268 CNS
29.8 µM: A498 renal
66.2 µM: MDA-N
41.2 µM: COLO 205 colon
44.6 µM: MDA-MB-231 breast | U251 CNS
44.8 µM: UACC-257 melanoma
74.1 µM: SK-OV-3 ovarian
44.5 µM: RXF 393 renal
90.8 µM: M14 melanoma
50.9 µM: EKVX NSCLC
41.6 µM: LOX IMVI melanoma
52.9 µM: NCI-H23 lung
50.6 µM: SN12C renal | KM12 colon
64.9 µM: HS 578T breast
65.3 µM: TK-10 renal
71.5 µM: HT29 colon
70.4 µM: RPMI-8226 leukemia
54.1 µM: BT-549 breast
32.5 µM: NCI-H522 lung
27.6 µM: SK-MEL-5 melanoma
33.2 µM: IGROV1 ovarian
49.5 µM: MALME-3M melanoma
34.3 µM: SK-MEL-2 melanoma
55 µM: MCF7 breast
50.8 µM: SF-295 CNS
42.9 µM: HCT-116 colon

O=c1c(-c2ccccc2)c(SCCN2CCCC2)n(-c2ccccc2)c(=S)n1-c1ccccc1
not listed: SK-MEL-5 melanoma | OVCAR-3 ovarian | UO-31 renal
> 100 µM: all other assays above
